Where two headings read alike, the source gives them in different places. Positions of bridges follow the written chain, without caps; N, C: chain ends. Residues, ends and D or L forms follow the SMILES beside them. No end group written: not given here. PEG = not defined here
Columns and labels:
[1] = biological target: T1, human mpl receptor (Homo sapiens, UniProt P40238); assay: TPO in vitro bioassay: mitogenic/cell-proliferation assay with IL-3 dependent murine 32D cells transfected with human mpl receptor; type: cell-based; settings: cell proliferation assay
T1 construct: murine 32D cells transfected with the full-length c-Mp1; expressed in transfected cells; host or cells: IL-3 dependent clone of murine 32D cells
T1 sequence (P40238 26-635): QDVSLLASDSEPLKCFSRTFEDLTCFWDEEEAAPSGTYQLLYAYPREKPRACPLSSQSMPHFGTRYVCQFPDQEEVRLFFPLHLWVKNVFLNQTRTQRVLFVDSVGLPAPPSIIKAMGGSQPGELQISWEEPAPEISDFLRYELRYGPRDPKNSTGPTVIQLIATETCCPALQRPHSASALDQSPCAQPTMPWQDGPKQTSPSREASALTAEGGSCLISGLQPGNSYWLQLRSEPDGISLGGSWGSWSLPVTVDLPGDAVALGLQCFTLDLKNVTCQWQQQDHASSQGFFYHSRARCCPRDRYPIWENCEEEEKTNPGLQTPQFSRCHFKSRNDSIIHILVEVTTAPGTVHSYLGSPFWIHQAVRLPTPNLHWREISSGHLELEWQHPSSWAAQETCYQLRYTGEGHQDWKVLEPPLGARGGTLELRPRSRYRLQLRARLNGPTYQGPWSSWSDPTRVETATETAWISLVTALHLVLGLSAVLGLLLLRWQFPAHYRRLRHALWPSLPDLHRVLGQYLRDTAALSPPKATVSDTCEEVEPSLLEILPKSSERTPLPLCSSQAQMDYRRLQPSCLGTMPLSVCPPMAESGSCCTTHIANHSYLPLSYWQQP
Experimental: Bioactivity assay. The TPO in vitro bioassay is a mitogenic assay utilizing an IL-3 dependent clone of murine 32D cells that have been transfected with human mpl receptor. This assay is described in greater detail in WO 95/26746. Cells are maintained in MEM medium containing 10% Fetal Clone II and 1 ng/ml mIL-3. Prior to sample addition, cells are prepared by rinsing twice with growth medium lacking mIL-3. An extended twelve point TPO standard curve is prepared, ranging from 3333 to 39 pg/ml. Four dilutions, estimated to fall within the linear portion of the standard curve, (1000 to 125 pg/ml), are prepared for each sample and run in triplicate. A volume of 100 μl of each dilution of sample or standard is added to appropriate wells of a 96 well microtiter plate containing 10,000 cells/well. After forty-four hours at 37° C. and 10% CO2, MTS (a tetrazolium compound which is bioreduced by cells to a formazan) is added to each well. Approximately six hours later, the optical density is read on a plate reader at 490 nm. A dose response curve (log TPO concentration vs. O.D.—Background) is generated and linear regression analysis of points which fall in the linear portion of the standard curve is performed. Concentrations of unknown test samples are determined using the resulting linear equation and a correction for the dilution factor.
The resulting peptides are readily accessible by conventional solid phase peptide synthesis methods (Merrifiled, R. B., Journal of the American Chemical Society 85:2149 (1963)) with either Fmoc or t-Boc chemistry. […] This might be due to differences in the conditions used in the two assays. […] It is interesting to note that a wide range of length is tolerated by the linker. The optimal linker with the selected TMP monomers (SEQ ID NO: 1) apparently is composed of 8 glycines.

[2] = biological target: T2, c-Mp1 (Homo sapiens, UniProt P40238); settings: cited from earlier work
T2 sequence (P40238 26-635): T1 sequence (P40238 26-635)

[3] = biological target: T2, c-Mp1; settings: cited from earlier work; remark: listed apart in the source
[4] = test system: platelets; assay: platelet production in normal mice, dose response with 7-day micro-osmotic pumps; type: in vivo
Experimental: Mice. Normal female BDF1 approximately 10-12 weeks of age.
Bleed schedule. Ten mice per group treated on day 0, two groups started 4 days apart for a total of 20 mice per group. Five mice bled at each time point, mice were bled a minimum of three times a week. Mice were anesthetized with isoflurane and a total volume of 140-160 μl of blood was obtained by puncture of the orbital sinus. Blood was counted on a Technicon HIE blood analyzer running software for murine blood. Parameters measured were white blood cells, red blood cells, hematocrit, hemoglobin, platelets, neutrophils.
Treatments. Mice were either injected subcutaneously for a bolus treatment or implanted with 7 day micro-osmotic pumps for continuous delivery. Subcutaneous injections were delivered in a volume of 0.2 ml. Osmotic pumps were inserted into a subcutaneous incision made in the skin between the scapulae of anesthetized mice. Compounds were diluted in PBS with 0.1% BSA. All experiments included one control group, labeled “carrier” that were treated with this diluent only. The concentration of the test articles in the pumps was adjusted so that the calibrated flow rate from the pumps gave the treatment levels indicated in the graphs.
Compounds. A dose titration of the compound was delivered to mice in 7 day micro-osmotic pumps. Mice were treated with various compounds at a single dose of 100 ug/kg in 7 day osmotic pumps. Some of the same compounds were then given to mice as a single bolus injection.

CC[C@H](C)[C@H](N)C(=O)N[C@@H](CCC(=O)O)C(=O)NCC(=O)N1CCC[C@H]1C(=O)N[C@H](C(=O)N[C@@H](CC(C)C)C(=O)N[C@@H](CCCNC(=N)N)C(=O)N[C@@H](CCC(N)=O)C(=O)N[C@H]1CSSC[C@@H](C(=O)N[C@@H](CC(C)C)C(=O)N[C@@H](C)C(=O)N[C@@H](C)C(=O)N[C@@H](CCCNC(=N)N)C(=O)N[C@@H](C)C(=O)O)NC(=O)[C@H](CCC(N)=O)NC(=O)[C@H](CCCNC(=N)N)NC(=O)[C@H](CC(C)C)NC(=O)[C@H]([C@@H](C)O)NC(=O)[C@@H]2CCCN2C(=O)CNC(=O)[C@H](CCC(=O)O)NC(=O)[C@H]([C@@H](C)CC)NC(=O)CNC(=O)CNC(=O)CNC(=O)CNC(=O)CNC(=O)CNC(=O)CNC(=O)CNC(=O)[C@H](C)NC(=O)[C@H](CCCNC(=N)N)NC(=O)[C@H](C)NC(=O)[C@H](C)NC(=O)[C@H](CC(C)C)NC1=O)[C@@H](C)O [Peptide 14] (H-IEGPTLRQCLAARAGGGGGGGGIEGPTLRQCLAARA-OH; disulfide 9-31; N-terminus assumed)
in vitro bioactivity, in words [1]: inactive

CC[C@H](C)[C@H](N)C(=O)N[C@@H](CCC(=O)O)C(=O)NCC(=O)N1CCC[C@H]1C(=O)N[C@H](C(=O)N[C@@H](CC(C)C)C(=O)N[C@@H](CCCNC(=N)N)C(=O)N[C@@H](CCC(N)=O)C(=O)N[C@@H](CS)C(=O)N[C@@H](CC(C)C)C(=O)N[C@@H](C)C(=O)N[C@@H](C)C(=O)N[C@@H](CCCNC(=N)N)C(=O)N[C@@H](C)C(=O)NCC(=O)NCC(=O)NCC(=O)NCC(=O)NCC(=O)NCC(=O)NCC(=O)NCC(=O)N[C@H](C(=O)N[C@@H](CCC(=O)O)C(=O)NCC(=O)N1CCC[C@H]1C(=O)N[C@H](C(=O)N[C@@H](CC(C)C)C(=O)N[C@@H](CCCNC(=N)N)C(=O)N[C@@H](CCC(N)=O)C(=O)N[C@@H](CS)C(=O)N[C@@H](CC(C)C)C(=O)N[C@@H](C)C(=O)N[C@@H](C)C(=O)N[C@@H](CCCNC(=N)N)C(=O)N[C@@H](C)C(=O)O)[C@@H](C)O)[C@@H](C)CC)[C@@H](C)O [Peptide 15, IEGPTLRQCLAARA-GGGGGGGG-IEGPTLRQCLAARA] (H-IEGPTLRQCLAARAGGGGGGGGIEGPTLRQCLAARA-OH; N-terminus assumed)
in vitro bioactivity, in words [1]: inactive

CC[C@H](C)[C@H](N)C(=O)N[C@@H](CCC(=O)O)C(=O)NCC(=O)N1CCC[C@H]1C(=O)N[C@H](C(=O)N[C@@H](CC(C)C)C(=O)N[C@@H](CCCNC(=N)N)C(=O)N[C@@H](CCC(N)=O)C(=O)N[C@@H](Cc1c[nH]c2ccccc12)C(=O)N[C@@H](CC(C)C)C(=O)N[C@@H](C)C(=O)N[C@@H](C)C(=O)N[C@@H](CCCNC(=N)N)C(=O)N[C@@H](C)C(=O)NCCCC[C@H](NC(=O)CCNC(=O)[C@H](C)NC(=O)[C@H](CCCNC(=N)N)NC(=O)[C@H](C)NC(=O)[C@H](C)NC(=O)[C@H](CC(C)C)NC(=O)[C@H](Cc1c[nH]c2ccccc12)NC(=O)[C@H](CCC(N)=O)NC(=O)[C@H](CCCNC(=N)N)NC(=O)[C@H](CC(C)C)NC(=O)[C@@H](NC(=O)[C@@H]1CCCN1C(=O)CNC(=O)[C@H](CCC(=O)O)NC(=O)[C@@H](N)[C@@H](C)CC)[C@@H](C)O)C(N)=O)[C@@H](C)O [TMP C-C dimer]
IC50 ([2]; read-out: binding affinity): 0.5 nM | EC50 [3]: 0.1 nM

IEGPTLRQALAARAGGGGGGGGIEGPTLRQALAARA-OH [Peptide 16, IEGPTLRQALAARA-GGGGGGGG-IEGPTLRQALAARA]
in vitro bioactivity, in words [1]: inactive

IEGPTLRQWLAARA-OH [TMP monomer, IEGPTLRQWLAARA]
IC50 ([2]; read-out: IC50): 2 nM | EC50 [3]: 400 nM

IEGPTLRQWLAARAGGGNGSGGIEGPTLRQWLAARA-OH [Peptide 21, TMP-GGGNGSGG-TMP]
in vitro bioactivity, in words [1]: activity comparable to that of the -(Gly)8-linked analog

IEGPTLRQWLAARAGPNGIEGPTLRQWLAARA-OH [Peptide 13, TMP-GPNG-TMP]
fold increase in potency as compared to the monomer [1]: about 100 fold | fold less active than the GGGG-linked analog [1]: > 10 fold

TMP-GGGC(PEG)GGGG-TMP (IEGPTLRQWLAARAGGGC(PEG)GGGGIEGPTLRQWLAARA; reading uncertain) [Peptide 20]
in vitro bioactivity, in words [1]: higher in vitro bioactivity as compared to their unpegylated counterparts | activity compared with unpegylated rHu-MGDF ([4]; 10 μg/kg/day vs 100 μg/kg/day unpegylated rHu-MGDF, same experiment): about equally active | percent of maximal activity ([4]; 10 μg/kg/day, 7-day micro-osmotic pumps): about 50% | dose at which the maximum effect was seen ([4]; 7-day micro-osmotic pumps, data not shown): 100 µg/kg/day

TMP-GGGK(PEG)GGGG-TMP (IEGPTLRQWLAARAGGGK(PEG)GGGGIEGPTLRQWLAARA; reading uncertain) [Peptide 19]
in vitro bioactivity, in words [1]: higher in vitro bioactivity as compared to their unpegylated counterparts
